Measurements from article PMC7072484 (Biomolecules, 2020).
pIC50: −log10 of the molar value. Read-outs that look alike come from different tables or passages of the source.

Key:
CYP3A4 = target: T1, CYP3A4 (Homo sapiens, UniProt P08684); test: P450-Glo luminescence inhibition assay; assay type: biochemical
T1 construct: native enzyme in pooled human liver microsomes (200 donors, male and female; Sekisui XenoTech), isoform-selective P450-Glo CYP3A4 kit

CYP2B6 = target: T2, CYP2B6 (Homo sapiens, UniProt P20813); test: P450-Glo luminescence inhibition assay; assay type: biochemical
T2 construct: native enzyme in pooled human liver microsomes (200 donors, male and female; Sekisui XenoTech), isoform-selective P450-Glo CYP2B6 kit
T2 sequence (P20813 1-491): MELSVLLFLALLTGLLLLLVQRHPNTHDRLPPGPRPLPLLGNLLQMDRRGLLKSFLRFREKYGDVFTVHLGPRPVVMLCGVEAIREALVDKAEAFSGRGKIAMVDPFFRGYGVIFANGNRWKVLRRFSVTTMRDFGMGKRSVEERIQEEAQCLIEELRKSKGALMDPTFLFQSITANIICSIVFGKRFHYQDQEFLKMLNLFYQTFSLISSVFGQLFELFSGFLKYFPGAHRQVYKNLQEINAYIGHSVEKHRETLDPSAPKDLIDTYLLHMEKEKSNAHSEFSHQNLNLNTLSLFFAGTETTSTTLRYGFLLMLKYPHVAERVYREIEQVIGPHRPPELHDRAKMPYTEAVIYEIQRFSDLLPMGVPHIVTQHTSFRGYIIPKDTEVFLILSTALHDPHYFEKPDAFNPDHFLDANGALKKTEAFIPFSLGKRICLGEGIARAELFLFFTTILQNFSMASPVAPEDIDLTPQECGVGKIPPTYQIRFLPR

T1 sequence (P08684 2-503): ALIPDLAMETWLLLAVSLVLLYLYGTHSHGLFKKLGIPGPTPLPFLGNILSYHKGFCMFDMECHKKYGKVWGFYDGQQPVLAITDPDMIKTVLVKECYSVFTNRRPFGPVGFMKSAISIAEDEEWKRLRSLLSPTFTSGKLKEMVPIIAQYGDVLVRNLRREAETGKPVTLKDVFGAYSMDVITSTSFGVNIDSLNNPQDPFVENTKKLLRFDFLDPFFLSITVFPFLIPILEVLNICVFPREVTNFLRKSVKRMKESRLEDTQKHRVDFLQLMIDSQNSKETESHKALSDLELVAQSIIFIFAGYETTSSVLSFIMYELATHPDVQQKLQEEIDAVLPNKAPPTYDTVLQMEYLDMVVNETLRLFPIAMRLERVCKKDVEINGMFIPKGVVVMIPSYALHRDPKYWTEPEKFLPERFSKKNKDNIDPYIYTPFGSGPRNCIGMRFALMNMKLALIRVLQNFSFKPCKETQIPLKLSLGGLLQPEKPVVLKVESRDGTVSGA

| SMILES | pIC50 (CYP3A4; read-out: CYP3A4 IC50) | pIC50 (CYP2B6) | pIC50 (CYP3A4; read-out: CYP2B6 IC50) |
| --- | --- | --- | --- |
| O=c1c(O)c(-c2ccc(O)c(O)c2)oc2cc(O)cc(O)c12 [Quercetin] | 5.34 | 4.70 | – |
| COc1cc2ccc(=O)oc2cc1O [Scopoletin] | – | < 3.22 | – |
| O=c1c(O)c(-c2ccc(O)cc2)oc2cc(O)cc(O)c12 [Kaempferol] | 4.47 | < 3.22 | – |
| COc1cc(-c2oc3cc(OC)c(OC)c(O)c3c(=O)c2OC)ccc1O [Chrysosplenetin] | 4.66 | 4.13 | – |
| C[C@@H]1CC[C@H]2[C@@H](C)C(=O)O[C@@H]3O[C@@]4(C)CC[C@@H]1[C@]32O4 [Deoxyartemisinin] | < 3.22 | 3.96 | – |
| CC1(C)[C@H]2CC[C@]1(C)C(=O)C2 [Camphor (-)] | < 3.22 | 3.85 | – |
| CC1(C)[C@@H]2CC[C@@]1(C)C(=O)C2 [Camphor (+)] | < 3.22 | 3.92 | – |
| COc1cc2oc(-c3ccc(O)c(O)c3)c(OC)c(=O)c2c(O)c1OC [Chrysosplenol-D] | 4.64 | 4.28 | – |
| C=C(C(=O)O)[C@@H]1CC[C@@H](C)[C@@H]2CCC(C)=C[C@@H]21 [Artemisinic Acid] | 3.62 | 3.91 | – |
| O=C(/C=C/c1ccc(O)c(O)c1)O[C@@H]1C[C@](O)(C(=O)O)C[C@@H](O)[C@H]1O [Chlorogenic Acid] | – | < 3.22 | < 3.22 |
| C=C1C(=O)O[C@@]23[C@H]1CC[C@@H](C)[C@@H]2CC[C@@]1(C)O[C@@H]31 [Arteannuin B] | 4.91 | 5.03 | – |
